Results from ChEMBL document CHEMBL6178021, “Optimization of Tambjamines Active against Multiple Stages of Malaria Parasites” (J Med Chem, 2025).
Values after ≈ are worked out from the molar mass of the structure shown.

Columns and labels:
[1] = Metabolic stability in mouse liver microsomes assessed as half life measured up to 60 mins by LC/MS analysis; format: ADME, Microsome
in vitro [2] = settings: human, liver microsomes
Plasmodium falciparum [3] = experiment: microbe, parasite or virus in culture; settings: D6, 72 h
Description: Antiplasmodial activity against asexual blood-stage Plasmodium falciparum D6 using 2% haematocrit and 0.2% parasitemia assessed as reduction in fluorescence measured after 72 hrs by Malaria SYBR Green I-based Fluorescence (MSF) assay

in vitro [4] = settings: mouse, liver microsomes
[5] = Metabolic stability in human liver microsomes assessed as half life measured up to 60 mins by LC/MS analysis; format: ADME, Microsome
Plasmodium yoelii [6] = experiment: Antimalarial activity against erythrocytic Plasmodium yoelii MRA-428 infected in CF1 mouse assessed as reduction in parasitemia at 25 mg/kg, po once daily for 4 days measured on day 5; format: functional; parameters: scale not given: the % may be the effect or the level left; settings: time 4 day
Plasmodium falciparum [7] = experiment: Antiplasmodial activity against asexual blood-stage Plasmodium falciparum Tm90-C2B using 2% haematocrit and 0.2% parasitemia assessed as reduction in fluorescence measured after 72 hrs by Malaria SYBR Green I-based Fluorescence (MSF) assay; format: functional, organism-based
[8] = (§1) Apparent permeability across apical to basolateral side in MDCK transfected with human MDR1 cells incubated for 1 hr by LC-MS analysis; settings: dog, mdck, 1 h
HepG2 = experiment: (§2) Cytotoxicity against human HepG2 cells assessed as cell viability measured after 48 hrs by MTT assay; format: toxicity, cell-based; settings: hepg2
Plasmodium yoelii [9] = experiment: Antimalarial activity against erythrocytic Plasmodium yoelii MRA-428 infected in CF1 mouse assessed as reduction in parasitemia at 10 mg/kg, po once daily for 4 days measured on day 5; format: functional; parameters: scale not given: the % may be the effect or the level left; settings: time 4 day
[10] = Solubility of the compound in potassium phosphate buffer at pH 7.4 by UV-vis spectroscopy
Plasmodium falciparum [11] = experiment: microbe, parasite or virus in culture; settings: Dd2, 72 h
Description: Antiplasmodial activity against asexual blood-stage Plasmodium falciparum Dd2 using 2% haematocrit and 0.2% parasitemia assessed as reduction in fluorescence measured after 72 hrs by Malaria SYBR Green I-based Fluorescence (MSF) assay

Plasmodium berghei [12] = experiment: Anti-malarial activity against Luciferase-expressing Plasmodium berghei sporozoites inoculated in po dosed Albino C57BL/6 mouse malaria model assessed as elimination of parasites in blood by measuring bioluminescence signal measured after 72 hrs; format: functional, organism-based
Plasmodium yoelii [13] = experiment: Antimalarial activity against erythrocytic Plasmodium yoelii MRA-428 infected in CF1 mouse assessed as cured mouse at 80 mg/kg, po once daily for 4 days measured on day 28 day; format: functional, organism-based; settings: time 4.0 day
Plasmodium yoelii [14] = experiment: Antimalarial activity against erythrocytic Plasmodium yoelii MRA-428 infected in CF1 mouse assessed as reduction in parasitemia at 80 mg/kg, po once daily for 4 days measured on day 5; format: functional; parameters: scale not given: the % may be the effect or the level left; settings: time 4 day
in vitro [15] = settings: human
Description: Selectivity index, ratio of IC50 for cytotoxicity against human HepG2 cells to IC50 for antiplasmodial activity against asexual blood-stage Plasmodium falciparum D6

Plasmodium yoelii [16] = experiment: Antimalarial activity against erythrocytic Plasmodium yoelii MRA-428 infected in CF1 mouse assessed as reduction in parasitemia at 50 mg/kg, po once daily for 4 days measured on day 5; format: functional; parameters: scale not given: the % may be the effect or the level left; settings: time 4 day
[17] = as §2; format: toxicity, cell-based; settings: human, HepG2 cells
Plasmodium yoelii [18] = experiment: Antimalarial activity against erythrocytic Plasmodium yoelii MRA-428 infected in CF1 mouse assessed as cured mouse at 50 mg/kg, po once daily for 4 days measured on day 28 day; format: functional, organism-based; settings: time 4.0 day
Plasmodium yoelii [19] = experiment: Antimalarial activity against erythrocytic Plasmodium yoelii MRA-428 infected in CF1 mouse assessed as cured mouse at 25 mg/kg, po once daily for 4 days measured on day 28 day; format: functional, organism-based; settings: time 4.0 day
Plasmodium berghei [20] = experiment: Anti-malarial activity against Luciferase-expressing Plasmodium berghei sporozoites inoculated in po dosed Albino C57BL/6 mouse malaria model assessed as elimination of parasites in liver by measuring bioluminescence signal measured after 48 hrs; format: functional, organism-based
MDR1 (human) [21] = experiment: Efflux ratio, ratio of apparent permeability across apical to basolateral side over basolateral to apical side in MDCK transfected with human MDR1 cells incubated for 1 hr by LC-MS analysis; settings: dog
Plasmodium yoelii [22] = experiment: Antimalarial activity against erythrocytic Plasmodium yoelii MRA-428 infected in CF1 mouse assessed as cured mouse at 10 mg/kg, po once daily for 4 days measured on day 28 day; format: functional, organism-based; settings: time 4.0 day
MDR1 (human) [23] = experiment: as §1; settings: dog, MDCK-MDR1
MDR1 (human) [24] = experiment: (§3) Apparent permeability across basolateral to apical side in MDCK transfected with human MDR1 cells incubated for 1 hr by LC-MS analysis; settings: dog, MDCK-MDR1
[25] = as §3; settings: dog, mdck, 1 h

Row | Structure (SMILES) | half-life [1] [h] | microsomal CLint at 1 h (in vitro [2]) [µL/min/mg] | IC50 (Plasmodium falciparum [3]) [nM] | microsomal CLint at 1 h (in vitro [4]) [µL/min/mg] | half-life [5] [h] | Activity (Plasmodium yoelii [6]) [%] | IC50 (Plasmodium falciparum [7]) [nM] | Papp [8] | IC50 (HepG2) [nM] | Activity (Plasmodium yoelii [9]) [%] | solubility ([10]; buffer) [µM] | IC50 (Plasmodium falciparum [11]) [nM] | selectivity ratio (in vitro [15]) | Activity (Plasmodium yoelii [16]) [%] | Activity (Plasmodium yoelii [18]) | Activity (Plasmodium yoelii [19]) | efflux ratio at 1 h (MDR1 (human) [21]) | Papp A→B at 1 h (MDR1 (human) [23]) [×10⁻⁶ cm/s] | Papp [25] | also measured
1 | COc1ccc(Cc2ccc(C3=N/C(=C\NC4CCCCCC4)C4=C3CCCC4)[nH]2)cc1 | > 1 | 3.18 | 6.1 | 2.07 | > 1 | 0 | 2.8 | 0.7 ×10⁻⁶ cm/s | 1340 | 0 | 11.4 (≈ 4.9 µg/mL) | 5.56 |  |  |  |  |  |  |  | 
2 | CCC1=C(CC)/C(=C/NC2CCCCCC2)N=C1c1ccc(Cc2ccc(OC)cc2)[nH]1 | > 1 | 2.23 | 9.93 | 2.27 | > 1 | 0 | 16.3 | 0.18 ×10⁻⁶ cm/s | 4340 | 0 | 20.5 (≈ 8.85 µg/mL) | 8.42 |  |  |  |  |  |  |  | 
3 | CCC1=C(CC)/C(=C/NC23CC4CC(CC(C4)C2)C3)N=C1c1ccc[nH]1 | 0.267 |  | 1.6 |  | > 1 | 100 |  |  |  | 82.5 |  | 1.01 | 2440 | 100 | Active; Three Mouse Cured Out Of Four | Active; Three Mouse Cured Out Of Four |  |  |  | Activity (Plasmodium berghei [12]): Dose-dependent-effect; Activity (Plasmodium yoelii [13]): Active; Four Mouse Cured Out Of Four; Activity (Plasmodium yoelii [14]): 100%; IC50 at 48 h [17]: 3900 nM; Activity (Plasmodium berghei [20]): Dose-dependent-effect
4 | CCC1=C(CC)/C(=C/NC23C[C@H]4C[C@@H](C2)C[C@@H](C3)C4)N=C1c1ccc(C)[nH]1 | > 1 | 39.7 | 0.934 | 13.8 | 0.582 | 100 | 1.01 |  | 2450 | 100 | 10.9 (≈ 3.96 µg/mL) | 0.823 | 2620 | 100 | Active; Two Mouse Cured Out Of Four | Not active; None Of The Mouse Cured Out Of Four Tested | 0.24 | 0.027 |  | Activity (Plasmodium yoelii [22]): Not active; None Of The Mouse Cured Out Of Four Tested; Papp B→A at 1 h (MDR1 (human) [24]): 0.006 ×10⁻⁶ cm/s
5 | CCC1=C(CC)/C(=C/NC23CC4CC(CC(C4)C2)C3)N=C1c1cc2ccccc2[nH]1 | 0.818 | 4.02 | 70.2 | 28.3 | > 1 |  | 410 | 0.58 ×10⁻⁶ cm/s |  |  |  | 59.3 | 99.8 |  |  |  | 0.14 |  |  | IC50 at 48 h [17]: 7010 nM; solubility ([10]; potassium phosphate buffer): 11.5 µM (≈ 4.6 µg/mL)
6 | CCC1=C(CC)/C(=C/NC23C[C@H]4C[C@@H](C2)C[C@@H](C3)C4)N=C1c1cc2cc(Cl)ccc2[nH]1 | > 1 | 8.8 | 106 | 4.72 | > 1 |  | 175 |  | 5020 |  | 18.3 (≈ 7.94 µg/mL) | 133 | 47 |  |  |  | 0.37 | 0.002 | 0.85 ×10⁻⁶ cm/s | 
7 | CCc1ccc(C2=N/C(=C\NC3CCCCCC3)C3=C2CCCC3)[nH]1 | > 1 | 8.31 | 4.8 | 10.3 | > 1 | 100 | 1.74 | 0.24 ×10⁻⁶ cm/s | 1060 | 22.7 | 15.4 (≈ 5.2 µg/mL) | 1.36 |  | 100 | Not active; None Of The Mouse Cured Out Of Four Tested | Not active; None Of The Mouse Cured Out Of Four Tested |  |  |  | Papp B→A at 1 h (MDR1 (human) [24]): 0.003 ×10⁻⁶ cm/s
8 | [2H]C([2H])(C)c1ccc(C2=N/C(=C\NC3CCCCCC3)C(C)=C2C)[nH]1 | > 1 | 14 | 5.08 | 16 | > 1 | 96.5 | 10.1 | 0.29 10^-6 cm/s | 6550 | 78.5 | 42 (≈ 13.2 µg/mL) | 5.91 |  |  |  |  |  |  | 0.007 10^-6 cm/s | 
9 | CCC1=C(CC)/C(=C/NC23C[C@H]4C[C@@H](C2)C[C@@H](C3)C4)N=C1c1ccc(Br)[nH]1 | > 1 | 14.4 | 18.1 | 7.36 | > 1 | 67.1 | 15.6 |  | 4020 | 33.1 | 25.8 (≈ 11.1 µg/mL) | 24.6 | 222 |  |  |  | 0.23 | 0.002 | 0.39 ×10⁻⁶ cm/s | 
10 | CCC1=C(CC)/C(=C/NC2CCCCC2)N=C1c1ccc(Cc2ccc(OC)cc2)[nH]1 | > 1 | 3.37 | 9.26 | 1.94 | > 1 | 0 | 11.6 | 0.15 ×10⁻⁶ cm/s | 7810 | 0 | 14.4 (≈ 6.01 µg/mL) | 7.25 |  |  |  |  |  |  | 0.43 ×10⁻⁶ cm/s | 
